Values quoted from earlier work in patent US9789059B2, “Oral disintegrating tablet” (Boehringer Ingelheim International GmbH, priority 2014, dated 2017).

Settings: physiological pH range of the gastro-intestinal tract between pH 1 to 7; free acid form

solubility in aqueous systems: very poor solubility
SMILES: CCCc1nc2c(C)cc(-c3nc4ccccc4n3C)cc2n1Cc1ccc(-c2ccccc2C(=O)O)cc1 [Telmisartan, 4′-[2-n-propyl-4-methyl-6-(1-methylbenzimidazol-2-yl)-benzimidazol-1-ylmethyl]-biphenyl-2-carboxylic acid]
